Data reported in article PMC6770071, “XIAP as a Target of New Small Organic Natural Molecules Inducing Human Cancer Cell Death” (Cancers, 2019).

CCCCCCCC/C=C/CCc1cc(O)c(O)cc1O [Eriopodol C, (E)-5-(dodec-3′-enyl)benzene-1,2,4-triol]
melting point: 138.5 °C
